Reference: patent US11479556B1, “Bifunctional compounds for degrading BTK via ubiquitin proteosome pathway” (NURIX THERAPEUTICS, INC., priority 2018, dated 2022)

target: T1, BTK (Homo sapiens, UniProt Q06187); test: Cellular BTK HTRF assay (BTK degradation) in TMD8 cells; format: cell-based; conditions: four hours incubation, Total-BTK HTRF relative to DMSO-treated cells
T1 construct: endogenous in cells; host or cells: TMD8 cells
Summary of the method: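 TMD8 cells were treated with compounds (final DMSO <0.200) for four hours at 37° C, 5% CO2, then lysed for 30 minutes. Total BTK was measured by two-antibody HTRF, taking the 665/620 nm ratio with background subtracted and expressed relative to DMSO-treated cells. DC50 came from four-parameter nonlinear regression.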

T1 sequence (Q06187 whole entry): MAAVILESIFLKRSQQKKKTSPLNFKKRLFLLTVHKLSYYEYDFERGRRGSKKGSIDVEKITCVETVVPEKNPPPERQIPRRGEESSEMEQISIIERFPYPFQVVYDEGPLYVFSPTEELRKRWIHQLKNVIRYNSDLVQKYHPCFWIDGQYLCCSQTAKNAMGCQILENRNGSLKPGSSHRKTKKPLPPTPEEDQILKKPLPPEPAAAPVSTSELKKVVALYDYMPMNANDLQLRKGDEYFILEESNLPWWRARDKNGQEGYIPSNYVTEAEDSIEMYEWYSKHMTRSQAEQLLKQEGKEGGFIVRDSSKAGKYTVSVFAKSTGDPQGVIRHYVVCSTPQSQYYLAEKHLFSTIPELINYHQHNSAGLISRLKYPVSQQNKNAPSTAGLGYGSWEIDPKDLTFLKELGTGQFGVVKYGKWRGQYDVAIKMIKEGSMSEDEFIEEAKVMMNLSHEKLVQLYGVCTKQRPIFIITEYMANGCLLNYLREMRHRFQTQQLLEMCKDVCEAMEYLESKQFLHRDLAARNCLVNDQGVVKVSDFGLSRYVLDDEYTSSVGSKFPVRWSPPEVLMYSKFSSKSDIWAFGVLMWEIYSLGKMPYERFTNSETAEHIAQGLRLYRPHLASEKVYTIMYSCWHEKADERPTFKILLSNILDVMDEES

Row | DC50 | SMILES
1 | < 5 nM | CN1CCN([C@@H]2CCCN(c3cnc(C(N)=O)c(Nc4ccc(C5CN(CC6CCN(c7cnn(C8CCC(=O)NC8=O)c(=O)c7)CC6)C5)cc4)n3)C2)C1=O (stereo partly shown) [Compound 118]
2 | < 5 nM | CN1CCN([C@@H]2CCCN(c3cnc(C(N)=O)c(Nc4ccc(C5CN(CC6CCN(c7ccc(-c8nn(C9CCC(=O)NC9=O)c(=O)n8C)cc7)CC6)C5)cc4)n3)C2)C1=O (stereo partly shown) [Compound 119]
3 | < 5 nM | CN1CCN([C@@H]2CCCN(c3cnc(C(N)=O)c(Nc4ccc(C5CCN(CC6CCN(c7cnn(C8CCC(=O)NC8=O)c(=O)c7)CC6)CC5)cc4)n3)C2)C1=O (stereo partly shown) [Compound 120]
4 | < 5 nM | CN1CCN([C@@H]2CCCN(c3cnc(C(N)=O)c(Nc4ccc(C5CCN(CC6CCN(c7ccc(-c8nn(C9CCC(=O)NC9=O)c(=O)n8C)cc7)CC6)CC5)cc4)n3)C2)C1=O (stereo partly shown) [Compound 121]
5 | < 5 nM | NC(=O)c1ncc(N2CCC[C@H](N3CCCC3=O)C2)nc1Nc1ccc(C2CCN(CC3CCN(c4ccc5c(c4)CCN(C4CCC(=O)NC4=O)C5=O)CC3)CC2)cc1 (stereo partly shown) [Compound 122]
6 | > 15 nM | NC(=O)c1ncc(N2CCCCC2)nc1Nc1ccc(N2CCC3(CC2)CCN(c2ccc4c(c2)C(=O)N(C2CCC(=O)NC2=O)C4=O)CC3)cc1 (stereo not shown) [Compound 124]
7 | < 5 nM | NC(=O)c1ncc(-n2cccn2)nc1Nc1ccc(C2CCN(C[C@H]3CCN(c4ccc5c(c4)C(=O)N(C4CCC(=O)NC4=O)C5=O)C3)CC2)cc1 (stereo partly shown) [Compound 125]
8 | < 5 nM | NC(=O)c1ncc(N2CCCC3(COC3)C2)nc1Nc1ccc(C2CCN(C[C@H]3CCN(c4ccc5c(c4)C(=O)N(C4CCC(=O)NC4=O)C5=O)C3)CC2)cc1 (stereo partly shown) [Compound 126]
9 | > 15 nM | NC(=O)c1ncc(-n2ccc(C(F)(F)F)n2)nc1Nc1ccc(C2CCN(CC3CCN(c4ccc5c(=O)n(C6CCC(=O)NC6=O)ccc5c4)CC3)CC2)cc1 (stereo not shown) [Compound 127]
10 | > 15 nM | NC(=O)c1ncc(-n2ccc(C(F)(F)F)n2)nc1Nc1ccc(C2CCN(C[C@H]3CCN(c4ccc5c(c4)C(=O)N(C4CCC(=O)NC4=O)C5=O)C3)CC2)cc1 (stereo partly shown) [Compound 128]
11 | < 5 nM | CN1CCN([C@H]2CCCN(c3cnc(C(N)=O)c(Nc4ccc(C5CCN(CC6CCN(c7ccc(NC8CCC(=O)NC8=O)cn7)CC6)CC5)cc4)n3)C2)C1=O (stereo partly shown) [Compound 129]
12 | < 5 nM | CN1CCN([C@H]2CCCN(c3cnc(C(N)=O)c(Nc4ccc(C5CCN(CC6CCN(c7ccc(C(=O)NC8CCC(=O)NC8=O)cc7)CC6)CC5)cc4)n3)C2)C1=O (stereo partly shown) [Compound 130]
13 | < 5 nM | Cn1cc(Nc2nc(N3CCC[C@H](N4CC5(CN(CC6CCN(c7ccc(NC8CCC(=O)NC8=O)nc7)CC6)C5)OC4=O)C3)cnc2C(N)=O)cn1 (stereo partly shown) [Compound 132]
14 | < 5 nM | NC(=O)c1ncc(N2CCCCC2)nc1Nc1ccc(C2CCN(CC3CCN(c4ccc5c(=O)n(C6CCC(=O)NC6=O)ccc5c4)CC3)CC2)cc1 (stereo not shown) [Compound 133]
15 | < 5 nM | CN1CCN([C@@H]2CCCN(c3cnc(C(N)=O)c(Nc4ccc(C5CCN(C[C@H]6CCN(c7ccc8c(=O)n(C9CCC(=O)NC9=O)ccc8c7)C6)CC5)cc4)n3)C2)C1=O (stereo partly shown) [Compound 134]
16 | < 5 nM | Cn1c(-c2ccc(N3CC(CN4CCC(c5ccc(Nc6nc(N7CCC[C@H](N8CCCC8=O)C7)cnc6C(N)=O)cc5)CC4)C3)cc2)nn(C2CCC(=O)NC2=O)c1=O (stereo partly shown) [Compound 135]
17 | < 5 nM | CN1CCN([C@H]2CCCN(c3cnc(C(N)=O)c(Nc4ccc(C5CCN(CC6CN(c7ccc(-c8nn(C9CCC(=O)NC9=O)c(=O)n8C)cc7)C6)CC5)cc4)n3)C2)C1=O (stereo partly shown) [Compound 136]
18 | < 5 nM | Cn1cc(Nc2nc(N3CCC[C@@H](N4CCC5(CN(CC6CCN(c7ccc8c(c7)C(=O)N(C7CCC(=O)NC7=O)C8=O)CC6)C5)C4=O)C3)cnc2C(N)=O)cn1 (stereo partly shown) [Compound 137]
19 | < 5 nM | CN1CCN([C@@H]2CCCN(c3cnc(C(N)=O)c(Nc4ccc(C5CCN(CC6CN(c7ccc8c(=O)n(C9CCC(=O)NC9=O)ccc8c7)C6)CC5)cc4)n3)C2)C1=O (stereo partly shown) [Compound 138]
20 | < 5 nM | NC(=O)c1ncc(N2CCC[C@H](N3CCCC3=O)C2)nc1Nc1ccc(C2CN(CC3CCN(c4ccc5c(=O)n(C6CCC(=O)NC6=O)ccc5c4)CC3)C2)cc1 (stereo partly shown) [Compound 139]
21 | < 5 nM | NC(=O)c1ncc(N2CCC[C@H](N3CCCC3=O)C2)nc1Nc1ccc(C2CN(C[C@@H]3CCN(c4ccc5c(c4)C(=O)N(C4CCC(=O)NC4=O)C5=O)C3)C2)cc1 (stereo partly shown) [Compound 140]
22 | < 5 nM | Cn1c(N2CCC(CN3CC(c4ccc(Nc5nc(N6CCC[C@H](N7CCCC7=O)C6)cnc5C(N)=O)cc4)C3)CC2)nn(C2CCC(=O)NC2=O)c1=O (stereo partly shown) [Compound 141]
23 | < 5 nM | CC1CCN([C@H]2CCCN(c3cnc(C(N)=O)c(Nc4ccc(C5CCN(C[C@@H]6CCN(c7ccc(-c8nn(C9CCC(=O)NC9=O)c(=O)n8C)cc7)C6)CC5)cc4)n3)C2)C1=O (stereo partly shown) [Compound 142]
24 | < 5 nM | Cn1c(-c2ccc(N3CCC(CN4CCC(c5ccc(Nc6nc(N7CCC[C@H](N8CCCC8=O)C7)cnc6C(N)=O)cc5)CC4)CC3)cc2)nn(C2CCC(=O)NC2=O)c1=O (stereo partly shown) [Compound 143]
25 | < 5 nM | NC(=O)c1ncc(N2CCC[C@H](N3CCCC3=O)C2)nc1Nc1ccc(C2CCN(CC3CCN(c4ccc5c(=O)n(C6CCC(=O)NC6=O)ccc5c4)CC3)CC2)cc1 (stereo partly shown) [Compound 144]

Row | DC50 | SMILES
26 | < 5 nM | Cn1cc(Nc2nc(N3CCC[C@@H](N4CCC5(CN(CC6CCN(c7ccc8c(=O)n(C9CCC(=O)NC9=O)ccc8c7)CC6)C5)C4=O)C3)cnc2C(N)=O)cn1 (stereo partly shown) [Compound 145]
27 | < 5 nM | NC(=O)c1ncc(N2CCCC(N3CCCC3=O)C2)nc1Nc1ccc(C2CN(C[C@@H]3CCN(c4ccc5c(c4)C(=O)N(C4CCC(=O)NC4=O)C5=O)C3)C2)cc1 (stereo partly shown) [Compound 146]
28 | < 5 nM | Cn1cc(Nc2nc(N3CCC[C@@H](N4CC5(CN(CC6CCN(c7ccc8c(=O)n(C9CCC(=O)NC9=O)ccc8c7)CC6)C5)OC4=O)C3)cnc2C(N)=O)cn1 (stereo partly shown) [Compound 147]
29 | < 5 nM | NC(=O)c1ncc(-c2nccs2)nc1Nc1ccc(C2CCN(C[C@@H]3CCN(c4ccc5c(c4)C(=O)N(C4CCC(=O)NC4=O)C5=O)C3)CC2)cc1 (stereo partly shown) [Compound 148]
30 | < 5 nM | NC(=O)c1ncc(N2CCCCC2)nc1Nc1ccc(C2CCN(C[C@@H]3CCN(c4ccc5c(c4)C(=O)N(C4CCC(=O)NC4=O)C5=O)C3)CC2)cc1 (stereo partly shown) [Compound 149]
31 | > 15 nM | NC(=O)c1ncc(-c2nccs2)nc1Nc1ccc(N2CCC3(CC2)CCN(c2ccc4c(c2)C(=O)N(C2CCC(=O)NC2=O)C4=O)CC3)cc1 (stereo not shown) [Compound 151]
32 | < 5 nM | CN1CCN(C2CCCN(c3cnc(C(N)=O)c(Nc4ccc(C5CCN(CC6CCN(c7ccc8c(c7)CN(C7CCC(=O)NC7=O)C8=O)C6)CC5)cc4)n3)C2)C1=O (stereo not shown) [Compound 152]
33 | < 5 nM | NC(=O)c1ncc(N2CCC[C@@H](N3CCOC3=O)C2)nc1Nc1ccc(C2CCN(CC3CCN(c4ccc5c(=O)n(C6CCC(=O)NC6=O)ccc5c4)CC3)CC2)cc1 (stereo partly shown) [Compound 153]
34 | < 5 nM | CN1CCN([C@@H]2CCCN(c3cnc(C(N)=O)c(Nc4ccc(C5CCN(C[C@H]6CC[C@H](Nc7cccc8c7C(=O)N(C7CCC(=O)NC7=O)C8=O)CC6)CC5)cc4)n3)C2)C1=O (stereo partly shown) [Compound 154]
35 | 5 to 15 nM | CN1CCN([C@@H]2CCCN(c3cnc(C(N)=O)c(Nc4ccc(C5CCN(C(=O)COc6cccc7c6C(=O)N(C6CCC(=O)NC6=O)C7=O)CC5)cc4)n3)C2)C1=O (stereo partly shown) [Compound 158]
36 | 5 to 15 nM | NC(=O)c1ncc(N2CCC(C(=O)O)CC2)nc1Nc1ccc(C2CCN(C[C@H]3CCN(c4ccc5c(c4)C(=O)N(C4CCC(=O)NC4=O)C5=O)C3)CC2)cc1 (stereo partly shown) [Compound 159]
37 | < 5 nM | NC(=O)c1ncc(N2CCC(CO)CC2)nc1Nc1ccc(C2CCN(C[C@@H]3CCN(c4ccc5c(c4)C(=O)N(C4CCC(=O)NC4=O)C5=O)C3)CC2)cc1 (stereo partly shown) [Compound 160]
38 | 5 to 15 nM | NC(=O)c1ncc(N2CCOCC2)nc1Nc1ccc(C2CCN(C[C@H]3CCN(c4ccc5c(c4)C(=O)N(C4CCC(=O)NC4=O)C5=O)C3)CC2)cc1 (stereo partly shown) [Compound 161]
39 | < 5 nM | NC(=O)c1ncc(N2CCC2)nc1Nc1ccc(C2CCN(C[C@H]3CCN(c4ccc5c(c4)C(=O)N(C4CCC(=O)NC4=O)C5=O)C3)CC2)cc1 (stereo partly shown) [Compound 162]
40 | < 5 nM | NC(=O)c1ncc(N2CCCCC2)nc1Nc1ccc(C2CCN(CC3CCN(c4ccc5ccn(C6CCC(=O)NC6=O)c(=O)c5c4)CC3)CC2)cc1 (stereo not shown) [Compound 163]
41 | 5 to 15 nM | NC(=O)c1ncc(N2CCCCC2)nc1Nc1ccc(C2CCN(CC3CCN(c4ccc(OC5CCC(=O)NC5=O)cn4)CC3)CC2)cc1 (stereo not shown) [Compound 164]
42 | 5 to 15 nM | CN1CCN([C@@H]2CCCN(c3cnc(C(N)=O)c(Nc4ccc(C5CCN(CC6CCN(c7ccc(OC8CCC(=O)NC8=O)cn7)CC6)CC5)cc4)n3)C2)C1=O (stereo partly shown) [Compound 165]
43 | > 15 nM | NC(=O)c1ncc(N2CCCCC2)nc1Nc1ccc(C2CCN(CC3CCN(c4ccc(NC5CCC(=O)NC5=O)cn4)CC3)CC2)cc1 (stereo not shown) [Compound 167]
44 | < 5 nM | NC(=O)c1ncc(N2CCC[C@@H](N3CCCC3=O)C2)nc1Nc1ccc(N2CC(C3CCN(c4ccc5c(c4)C(=O)N(C4CCC(=O)NC4=O)C5=O)CC3)C2)nc1 (stereo partly shown) [Compound 168]
45 | < 5 nM | NC(=O)c1ncc(N2CCC[C@@H](N3CCCC3=O)C2)nc1Nc1ccc(N2CC(C3CCN(c4ccc5c(c4)C(=O)N(C4CCC(=O)NC4=O)C5=O)CC3)C2)cc1 (stereo partly shown) [Compound 169]
46 | < 5 nM | NC(=O)c1ncc(N2CCC[C@@H](CO)C2)nc1Nc1ccc(C2CCN(CC3CCN(c4ccc(NC5CCC(=O)NC5=O)cn4)CC3)CC2)cc1 (stereo partly shown) [Compound 170]
47 | < 5 nM | NC(=O)c1ncc(N2CCC[C@@H](CO)C2)nc1Nc1ccc(C2CCN(CC3CCN(c4ccc(OC5CCC(=O)NC5=O)cn4)CC3)CC2)cc1 (stereo partly shown) [Compound 171]
48 | < 5 nM | NC(=O)c1ncc(N2CCC[C@@H](CO)C2)nc1Nc1ccc(C2CCN(CC3CCN(c4ccc5c(=O)n(C6CCC(=O)NC6=O)ccc5c4)CC3)CC2)cc1 (stereo partly shown) [Compound 172]
49 | < 5 nM | NC(=O)c1ncc(N2CCC[C@@H](CO)C2)nc1Nc1ccc(C2CCN(CC3CCN(c4ccc(C(=O)NC5CCC(=O)NC5=O)nc4)CC3)CC2)cc1 (stereo partly shown) [Compound 173]
